Data: patent US11078184B2, “Dexrabeprazole sodium compound and pharmaceutical composition thereof” (JIANGSU AOSAIKANG PHARMACEUTICAL CO., LTD., priority 2017, dated 2021)

Legend:
[1] = Determination of hygroscopic moisture; format: physicochemical; conditions: 25° C. thermostatic drier over saturated ammonium chloride solution, sodium salt
Experimental: Determination of hygroscopic moisture: 25±+1° C. Thermostatic Drier (with a saturated solution of ammonium chloride being placed at bottom of the drier).

[2] = Tap density, bulk density, compression coefficient and Hausner ratio; format: physicochemical; conditions: sodium salt
Experimental: The compression coefficient and the Hausner ratio closely related thereto are simple and fast methods for predicting the powder property, and are often used as the index for characterizing the powder flowability. Crystal forms A and B were sampled for measuring the tap density and bulk density of powder of different crystal forms, and then the compression coefficient and the Hausner ratio were calculated. Wherein, the compression coefficient (%)=[(the tap density−the bulk density)/the tap density×100%; and the Hausner ratio=the tap density/the bulk density.

[3] = Determination of angle of repose (powder flowability); format: physicochemical; conditions: average of three determinations; sodium salt
Experimental: Determination of angle of repose: BT-1001 Intelligent Powder Characteristic Tester (Dandong Bettersize Instrument Co., Ltd.)
Angle of repose is a key characteristic of the frictional resistance between powder particles, and is an important parameter for characterizing the powder flowability. The angle of repose is determined by measuring the height and the base radius of a cone formed by powders, with a calculation equation as follows: tan(α)=height/radius. The angle of reposes of crystal forms A and B were measured and compared for their difference, respectively.

[4] = Test of influence factors (stability: appearance and relevant materials by HPLC); format: physicochemical
Experimental: Chromatographic conditions of relevant materials: Chromatographic column: charged with octadecylsilane bonded silica as a filler (Agilent ZORBAX Extend C18, 250×4.6 mm, […]); Mobile phase A: 0.025 mol/L of phosphate solution (the pH of 0.025 mol/L of dipotassium phosphate solution was adjusted to 7.2 with phosphoric acid)-acetonitrile (95:5); Mobile phase B: methanol; Mobile phase C: acetonitrile; A linear gradient elution is carried out in accordance with the following table. Detection wavelength: 280 nm, 220 nm (for impurity H) Flowrate: 1.0 ml/min Column temperature: 25° C. Sample size: 5 μl Diluent: the pH of 0.1 mol/L of dipotassium phosphate solution was adjusted to 11.3 with 2 mol/L potassium hydroxide solution-methanol (45:55). Crystal forms A, B, and C (each 100 mg) were placed under different conditions, and sampled at Days 0, 10, 20, and 30 for detecting their characters and relevant materials, respectively.

[5] = High temperature / grinding test, change of crystal form by XRPD; format: physicochemical; conditions: sodium salt; for Stability of the crystal form at a high temperature: XRPD
Source text: Crystal forms A and C of dexrabeprazole sodium were placed under different conditions as listed in Table 5 below, and sampled for XRPD detection to investigate the change of crystal forms.

[6] = Test of suspension equilibrium (XRPD); conditions: suspension in acetonitrile
Experimental: XRPD test (FIGS. 10 & 12-14, Modern Analysis Center, Nanjing University): Instrument model: Thermo Co., Ltd., X'TRA Type X Diffractometer, target: Cu (40 kV, 40 mA), scanning range: 2°-40° (2θvalue), scanning step length: 0.02, scanning speed: 5
The mixture was stirred, together with 10 ml of a solvent at 35° C. and under nitrogen atmosphere, and then sampled for XRPD detection.

[7] = High humidity, RH75 ± 5%, Day 0
[8] = High humidity, RH75 ± 5%, Day 0, sodium salt
[9] = High humidity, RH75 ± 5%, Day 10, sodium salt
[10] = High humidity, RH75 ± 5%, Day 20, sodium salt
[11] = High humidity, RH75 ± 5%, Day 30, sodium salt
[12] = High temperature, 40° C., Day 0
[13] = High temperature, 40° C., Day 0, sodium salt
[14] = High temperature, 40° C., Day 10
[15] = High temperature, 40° C., Day 10, sodium salt
[16] = High temperature, 40° C., Day 20
[17] = High temperature, 40° C., Day 20, sodium salt
[18] = High temperature, 40° C., Day 30
[19] = High temperature, 40° C., Day 30, sodium salt
[20] = Light exposure, 4500 ± 500 Lx, Day 0
[21] = Light exposure, 4500 ± 500 Lx, Day 0, sodium salt
[22] = Light exposure, 4500 ± 500 Lx, Day 10
[23] = Light exposure, 4500 ± 500 Lx, Day 10, sodium salt
[24] = Light exposure, 4500 ± 500 Lx, Day 20
[25] = Light exposure, 4500 ± 500 Lx, Day 20, sodium salt
[26] = Light exposure, 4500 ± 500 Lx, Day 30
[27] = Light exposure, 4500 ± 500 Lx, Day 30, sodium salt

## COCCCOc1ccnc(C[S@@+]([O-])c2nc3ccccc3[n-]2)c1C.[Na+] [Amorphous form, R-(+)-2-{[4-(3-methoxypropoxy)-3-methylpyrid-2-yl]methylsulfinyl}-1H-benzimidazole sodium salt, reference compound]
[1]; 0 h
  Hygroscopic moisture (%): 6.60%
[1]; 24 h
  Hygroscopic moisture (%): 21.60%
[1]; 48 h
  Hygroscopic moisture (%): 21.81%

## COCCCOc1ccnc(C[S@@+]([O-])c2nc3ccccc3[n-]2)c1C.[Na+] [Crystal form A, R-(+)-2-{[4-(3-methoxypropoxy)-3-methylpyrid-2-yl]methylsulfinyl}-1H-benzimidazole sodium salt, reference compound]
[2]
  Bulk density: 0.267 g · cm^−3
  Tap density: 0.450 g · cm^−3
[3]
  Determination of angle of repose, Average: Average: 58.89°
[4]; [7]
  Appearance character: Off-white
[4]; [8]
  Relevant materials: Maximum individual impurity (%): 0.037%
  Relevant materials: Total impurity (%): 0.098%
[4]; High humidity, RH75 ± 5%, Day 10
  Appearance character: Yellow
[4]; [9]
  Relevant materials: Maximum individual impurity (%): 0.029%
  Relevant materials: Total impurity (%): 0.152%
[4]; High humidity, RH75 ± 5%, Day 20
  Appearance character: Yellow
[4]; [10]
  Relevant materials: Maximum individual impurity (%): 0.200%
  Relevant materials: Total impurity (%): 0.483%
[4]; High humidity, RH75 ± 5%, Day 30
  Appearance character: Yellow
[4]; [11]
  Relevant materials: Maximum individual impurity (%): 0.287%
  Relevant materials: Total impurity (%): 1.495%
[4]; [12]
  Appearance character: Off-white
[4]; [13]
  Relevant materials: Maximum individual impurity (%): 0.037%
  Relevant materials: Total impurity (%): 0.098%
[4]; [14]
  Appearance character: Off-white
[4]; [15]
  Relevant materials: Maximum individual impurity (%): 0.037%
  Relevant materials: Total impurity (%): 0.100%
[4]; [16]
  Appearance character: Off-white
[4]; [17]
  Relevant materials: Maximum individual impurity (%): 0.021%
  Relevant materials: Total impurity (%): 0.145%
[4]; [18]
  Appearance character: Off-white
[4]; [19]
  Relevant materials: Maximum individual impurity (%): 0.019%
  Relevant materials: Total impurity (%): 0.210%
[4]; [20]
  Appearance character: Off-white
[4]; [21]
  Relevant materials: Maximum individual impurity (%): 0.037%
  Relevant materials: Total impurity (%): 0.098%
[4]; [22]
  Appearance character: Off-white
[4]; [23]
  Relevant materials: Maximum individual impurity (%): 0.077%
  Relevant materials: Total impurity (%): 0.133%
[4]; [24]
  Appearance character: Off-white
[4]; [25]
  Relevant materials: Maximum individual impurity (%): 0.099%
  Relevant materials: Total impurity (%): 0.298%
[4]; [26]
  Appearance character: Off-white
[4]; [27]
  Relevant materials: Maximum individual impurity (%): 0.123%
  Relevant materials: Total impurity (%): 0.396%
[1]; 0 h
  Hygroscopic moisture (%): 4.66%
[1]; 24 h
  Hygroscopic moisture (%): 5.10%
[1]; 48 h
  Hygroscopic moisture (%): 5.72%
[5]; grinded in a mortar for 5 min
  Comparison of XRPD fit charts (change of crystal form): partially converted to an amorphous form
[5]
  Stability of the crystal form at a high temperature: unstable at a high temperature

## COCCCOc1ccnc(C[S@@+]([O-])c2nc3ccccc3[n-]2)c1C.[Na+] [Crystal form B, R-(+)-2-{[4-(3-methoxypropoxy)-3-methylpyrid-2-yl]methylsulfinyl}-1H-benzimidazole sodium salt]
[2]; (tap density − bulk density)/tap density × 100%
  Compression coefficient: 22.72%
[2]
  Bulk density: 0.398 g · cm^−3
  Tap density: 0.515 g · cm^−3
[2]; tap density/bulk density
  Hausner ratio: 1.29
[3]
  Determination of angle of repose, Average: Average: 36.35°
[4]; [7]
  Appearance character: Off-white
[4]; [8]
  Relevant materials: Maximum individual impurity (%): 0.029%
  Relevant materials: Total impurity (%): 0.088%
[4]; [9]
  Appearance character: Yellow
  Relevant materials: Maximum individual impurity (%): 0.017%
  Relevant materials: Total impurity (%): 0.141%
[4]; [10]
  Appearance character: Yellow
  Relevant materials: Maximum individual impurity (%): 0.189%
  Relevant materials: Total impurity (%): 0.426%
[4]; [11]
  Appearance character: Yellow
  Relevant materials: Maximum individual impurity (%): 0.280%
  Relevant materials: Total impurity (%): 1.300%
[4]; [12]
  Appearance character: Off-white
[4]; [13]
  Relevant materials: Maximum individual impurity (%): 0.029%
  Relevant materials: Total impurity (%): 0.088%
[4]; [14]
  Appearance character: Off-white
[4]; [15]
  Relevant materials: Maximum individual impurity (%): 0.028%
  Relevant materials: Total impurity (%): 0.090%
[4]; [16]
  Appearance character: Off-white
[4]; [17]
  Relevant materials: Maximum individual impurity (%): 0.015%
  Relevant materials: Total impurity (%): 0.126%
[4]; [18]
  Appearance character: Off-white
[4]; [19]
  Relevant materials: Maximum individual impurity (%): 0.012%
  Relevant materials: Total impurity (%): 0.190%
[4]; [20]
  Appearance character: Off-white
[4]; [21]
  Relevant materials: Maximum individual impurity (%): 0.029%
  Relevant materials: Total impurity (%): 0.088%
[4]; [22]
  Appearance character: Off-white
[4]; [23]
  Relevant materials: Maximum individual impurity (%): 0.059%
  Relevant materials: Total impurity (%): 0.120%
[4]; [24]
  Appearance character: Off-white
[4]; [25]
  Relevant materials: Maximum individual impurity (%): 0.155%
  Relevant materials: Total impurity (%): 0.263%
[4]; [26]
  Appearance character: Off-white
[4]; [27]
  Relevant materials: Maximum individual impurity (%): 0.100%
  Relevant materials: Total impurity (%): 0.360%
[4]; light exposure, high temperature, and high humidity
  Stability compared with crystal form A: comparable to that of crystal form A
[1]; 0 h
  Hygroscopic moisture (%): 4.72%
[1]; 24 h
  Hygroscopic moisture (%): 5.18%
[1]; 48 h
  Hygroscopic moisture (%): 5.75%

## COCCCOc1ccnc(C[S@@+]([O-])c2nc3ccccc3[n-]2)c1C.[Na+] [Crystal form C, R-(+)-2-{[4-(3-methoxypropoxy)-3-methylpyrid-2-yl]methylsulfinyl}-1H-benzimidazole sodium salt]
[4]; [7]
  Appearance character: Off-white
[4]; [8]
  Relevant materials: Maximum individual impurity (%): 0.032%
  Relevant materials: Total impurity (%): 0.085%
[4]; [9]
  Appearance character: Off-white
  Relevant materials: Maximum individual impurity (%): 0.027%
  Relevant materials: Total impurity (%): 0.094%
[4]; [10]
  Appearance character: Off-white
  Relevant materials: Maximum individual impurity (%): 0.015%
  Relevant materials: Total impurity (%): 0.166%
[4]; [11]
  Appearance character: Off-white
  Relevant materials: Maximum individual impurity (%): 0.292%
  Relevant materials: Total impurity (%): 0.491%
[4]; [12]
  Appearance character: Off-white
[4]; [13]
  Relevant materials: Maximum individual impurity (%): 0.032%
  Relevant materials: Total impurity (%): 0.085%
[4]; [14]
  Appearance character: Off-white
[4]; [15]
  Relevant materials: Maximum individual impurity (%): 0.030%
  Relevant materials: Total impurity (%): 0.093%
[4]; [16]
  Appearance character: Off-white
[4]; [17]
  Relevant materials: Maximum individual impurity (%): 0.028%
  Relevant materials: Total impurity (%): 0.117%
[4]; [18]
  Appearance character: Off-white
[4]; [19]
  Relevant materials: Maximum individual impurity (%): 0.024%
  Relevant materials: Total impurity (%): 0.136%
[4]; [20]
  Appearance character: Off-white
[4]; [21]
  Relevant materials: Maximum individual impurity (%): 0.032%
  Relevant materials: Total impurity (%): 0.085%
[4]; [22]
  Appearance character: Off-white
[4]; [23]
  Relevant materials: Maximum individual impurity (%): 0.088%
  Relevant materials: Total impurity (%): 0.112%
[4]; [24]
  Appearance character: Off-white
[4]; [25]
  Relevant materials: Maximum individual impurity (%): 0.094%
  Relevant materials: Total impurity (%): 0.245%
[4]; [26]
  Appearance character: Off-white
[4]; [27]
  Relevant materials: Maximum individual impurity (%): 0.113%
  Relevant materials: Total impurity (%): 0.344%
[4]; high temperature and high humidity
  Stability compared with crystal form A: better than that of crystal form A
[4]; light exposure
  Stability compared with crystal form A: comparable to that of crystal form A
[1]; 0 h
  Hygroscopic moisture (%): 0.11%
[1]; 24 h
  Hygroscopic moisture (%): 0.15%
[1]; 48 h
  Hygroscopic moisture (%): 0.18%
[5]
  Stability of the crystal form at a high temperature: keeps stable at a high temperature without crystal transformation
[6]
  Stability of the crystal form in suspension equilibrium: better stability than amorphous form and crystal form A
